Data from patent EP2108954A1, “A test system for detecting intracellular cyclic nucleotide level and methods and uses thereof” (Max-Planck-Gesellschaft zur Förderung der Wissenschaften …, priority 2008, dated 2009).
Where two headings read alike, the source gives them in different places.

Target: T1, Or22a and Or83b (Drosophila melanogaster, UniProt P81909+Q9VNB5)
T1 construct: expressed in transfected cells; host or cells: HEK293
T1 sequence (P81909 1-397): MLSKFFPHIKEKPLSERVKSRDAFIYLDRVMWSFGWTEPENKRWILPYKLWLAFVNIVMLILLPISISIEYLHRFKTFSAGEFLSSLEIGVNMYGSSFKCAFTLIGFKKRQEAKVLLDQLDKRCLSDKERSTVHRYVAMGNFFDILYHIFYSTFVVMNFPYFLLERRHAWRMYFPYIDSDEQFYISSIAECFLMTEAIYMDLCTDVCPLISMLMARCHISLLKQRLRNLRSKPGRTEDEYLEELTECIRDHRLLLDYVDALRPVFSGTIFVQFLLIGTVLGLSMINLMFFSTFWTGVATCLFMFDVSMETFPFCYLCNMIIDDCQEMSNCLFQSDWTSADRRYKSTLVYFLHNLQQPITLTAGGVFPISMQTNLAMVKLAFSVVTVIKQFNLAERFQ
T1 sequence (Q9VNB5 1-486): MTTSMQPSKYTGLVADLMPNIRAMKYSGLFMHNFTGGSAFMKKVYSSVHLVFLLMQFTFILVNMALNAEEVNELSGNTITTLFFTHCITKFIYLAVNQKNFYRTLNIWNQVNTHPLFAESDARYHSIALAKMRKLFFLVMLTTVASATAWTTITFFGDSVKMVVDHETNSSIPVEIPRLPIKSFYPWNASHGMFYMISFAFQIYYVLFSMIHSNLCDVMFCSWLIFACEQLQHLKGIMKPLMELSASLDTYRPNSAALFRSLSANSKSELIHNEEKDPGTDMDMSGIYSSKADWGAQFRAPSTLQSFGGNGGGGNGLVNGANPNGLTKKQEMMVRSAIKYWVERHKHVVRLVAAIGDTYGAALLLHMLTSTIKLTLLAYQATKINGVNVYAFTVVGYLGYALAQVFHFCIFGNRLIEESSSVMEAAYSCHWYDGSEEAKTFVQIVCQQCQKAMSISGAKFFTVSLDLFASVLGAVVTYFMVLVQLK
Assay: Whole-cell patch-clamp of currents in HEK293 cells coexpressing Or22a and Or83b
Type: cell-based
Protocol: In some experiments we transfected cells with pcDNA3-DOR22a-GFP or pcDNA3-DOR83b-GFP alone. We also examined the properties of DOR47a, which was cloned, using standard molecular biology methods into a pcDNA3.1(-) expression vector. To test for putative G-protein coupling, cells were transfected with the respective OR-DNA together with 1.5 µg hHCN2/pcDNA3 (provided by M. Biel, Munich, Germany), with 1 µg hKCNQ4/pcDNA3.1 or with 1 µg hCNGA2/pCMV6-XL4 (Origene, Rockville, MD, USA).
In brief, ion currents in HEK293 cells were measured at room temperature using whole-cell patch-clamp with appropriate compensation of series resistance and of capacitive currents. Additional experiments were performed in the outside-out configuration. Current measurements and data acquisition were performed using an EPC9 patch-clamp amplifier controlled by PatchMaster software (both HEKA Elektronik, Lambrecht, Germany). Patch-clamp pipettes were fabricated from borosilicate capillaries. Pipettes for whole-cell recordings had resistances of 2-4 MΩ for excised-patch recordings the pipette resistance was up to 15 MΩ.
To differentiate between ionotropic and metabotropic pathways of receptor activation (Fig. 2a-d) the pipette solution contained either 2 mM ATP plus 2 mM GTP or 2 mM ADP plus 2 mM GDP (both for whole-cell and outside-out configuration). For the preparation of Cl^--free solutions the chloride salts were substituted by gluconate salts. The pipette Cs^+ solution contained (in mM) 140 CsCl, 1 Mg-ATP, 10 EGTA, 10 HEPES (pH = 7.3), and the Cs^+ bath solution contained (in mM) 140 CsCl, 15 glucose, 15 HEPES (pH = 7.4). The Ca^2+-free bath solution contained (in mM) 140 NaCl, 15 glucose, 15 HEPES, and the Na^+-free bath solution contained (in mM) 140 NMDG-Cl, 10 CaCl2, 10 glucose, 15 HEPES.
With the exception of GDP-γ-S, which was applied via the patch pipette, all substances were applied to the bath using either a bath perfusion system (BPS4 from ALA, New York, USA) or a rapid solution changer (RSC160 from Biologic, Claix, France) which were controlled by the PatchMaster software (HEKA Elektronik).

[1] = Etb 100 nM, 1 s, whole-cell, -60 mV, Or22a C-terminal GFP fusion protein, ADP and GDP (-)
[2] = Etb 100 nM, 1 s, whole-cell, -60 mV, Or22a C-terminal GFP fusion protein, ATP and GTP (+)
[3] = Etb 100 nM, 1 s, whole-cell, -60 mV, Or22a N-terminal GFP fusion protein, ADP and GDP (-)
[4] = Etb 100 nM, 1 s, whole-cell, -60 mV, Or22a N-terminal GFP fusion protein, ATP and GTP (+)
[5] = short Etb application, whole-cell, -60 mV, Tab. 1
[6] = short Etb application, whole-cell, -60 mV, internal ATP and GTP, Tab. 1

CCCC(=O)OCC [Etb, ethyl butyrate]
further increase of current (100 µM Etb after stimulation with 100 µM 8-bromo-cAMP): +1.6 ± 3.8 % of current induced by 8-bromo-cAMP
Etb-induced current in symmetrical Cs+ solutions (140 mM Cs+ in pipette and bath solution, n = 6): No current was detected
EC50 (EC50 of Etb-induced currents, 500 µM GDP-β-S in the pipette, n = 11): 70000 pM
latency of Ii (Etb 100 nM, 1 s, whole-cell, -60 mV): < 0.5 s
Ii Decay time [1]: 10.8 ± 0.6 s
Ii Peak size [1]: 133 ± 51 pA
Ii Peak time [1]: 1.13 ± 0.02 s
Im Decay time [1]: 68 ± 8 s
Im Latency [1]: 18 ± 8 s
Im Peak size [1]: 77 ± 7 PA
Im Peak time [1]: 43 ± 9 s
Ii Decay time [2]: 10.5 ± 0.7 s
Ii Peak size [2]: 100 ± 23 pA
Ii Peak time [2]: 1.10 ± 0.03 s
Im Decay time [2]: 79 ± 5 s
Im Latency [2]: 10 ± 2 s
Im Peak size [2]: 291 ± 54 PA
Im Peak time [2]: 58 ± 4 s
Ii Decay time [3]: 10.4 ± 0.9 s
Ii Peak size [3]: 132 ± 38 pA
Ii Peak time [3]: 0.90 ± 0.17 s
Im Decay time [3]: 63 ± 9 s
Im Latency [3]: 24 ± 5 s
Im Peak size [3]: 51 ± 6 PA
Im Peak time [3]: 44 ± 6 s
Ii Decay time [4]: 10.2 ± 0.9 s
Ii Peak size [4]: 98 ± 23 pA
Ii Peak time [4]: 1.16 ± 0.06 s
Im Decay time [4]: 80 ± 8 s
Im Latency [4]: 11 ± 3 s
Im Peak size [4]: 311 ± 51 PA
Im Peak time [4]: 62 ± 9 s
Hill coefficient of olfactory receptor current (ORC) (cells coexpressing Or22a, Or83b and hKCNQ4, n = 6): 0.41
EC50 (cells coexpressing Or22a, Or83b and hKCNQ4, normalized to maximum response, n = 6, read-out: EC50 of olfactory receptor current (ORC)): 256 pM
Hill coefficient of Etb-induced currents (control conditions, n = 9): 0.61
EC50 (control conditions, n = 9, read-out: EC50 of Etb-induced currents): 677 pM
EC50 (half-maximal effect (current size), metabotropic current response): ~700 pM
odorant concentration at which current size saturates (metabotropic current response, Fig. 2f): about 100 nM
odour-induced current in Cl^--free solutions (n = 5): remained unchanged
Ii peak [5]: 1 s
Ii termination [5]: 10 s
Im Latency [6]: 10 s
Im peak [6]: 60 s
Im termination [6]: 80 s
